Source: PubChem BioAssay (NCI)
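Method: 48-hour compound exposure of cells in 96-well plates, five concentrations, linear interpolation of endpoints. TGI: concentration producing complete growth inhibition.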

Key:
Test in all cases: NCI anticancer screen, dose series, 48 h
HOP-92 NSCLC = tested on: HOP-92 NSCLC
NCI-H23 lung = tested on: NCI-H23 lung
HCT-116 colon = tested on: HCT-116 colon
HS 578T breast = tested on: HS 578T breast
EKVX NSCLC = tested on: EKVX NSCLC
NCI-H522 lung = tested on: NCI-H522 lung
OVCAR-5 ovarian = tested on: OVCAR-5 ovarian
MDA-N = tested on: MDA-N
SN12C renal = tested on: SN12C renal
NCI-H460 lung = tested on: NCI-H460 lung
UACC-257 melanoma = tested on: UACC-257 melanoma
SK-MEL-28 melanoma = tested on: SK-MEL-28 melanoma
KM12 colon = tested on: KM12 colon
UACC-62 melanoma = tested on: UACC-62 melanoma
SW-620 colon = tested on: SW-620 colon
CAKI-1 renal = tested on: CAKI-1 renal
SF-539 CNS = tested on: SF-539 CNS
SF-268 CNS = tested on: SF-268 CNS
MALME-3M melanoma = tested on: MALME-3M melanoma
MDA-MB-231 breast = tested on: MDA-MB-231 breast
M14 melanoma = tested on: M14 melanoma
A549 NSCLC = tested on: A549 NSCLC
COLO 205 colon = tested on: COLO 205 colon
SNB-19 CNS = tested on: SNB-19 CNS
DU-145 prostate = tested on: DU-145 prostate
UO-31 renal = tested on: UO-31 renal
SF-295 CNS = tested on: SF-295 CNS
T-47D breast = tested on: T-47D breast
MCF7 breast = tested on: MCF7 breast
HCT-15 colon = tested on: HCT-15 colon
RXF 393 renal = tested on: RXF 393 renal
RPMI-8226 leukemia = tested on: RPMI-8226 leukemia
OVCAR-3 ovarian = tested on: OVCAR-3 ovarian
K-562 leukemia = tested on: K-562 leukemia
TK-10 renal = tested on: TK-10 renal
A498 renal = tested on: A498 renal
SNB-75 CNS = tested on: SNB-75 CNS
HT29 colon = tested on: HT29 colon
HOP-62 NSCLC = tested on: HOP-62 NSCLC
SK-MEL-5 melanoma = tested on: SK-MEL-5 melanoma
BT-549 breast = tested on: BT-549 breast
MDA-MB-435 = tested on: MDA-MB-435
IGROV1 ovarian = tested on: IGROV1 ovarian
ACHN renal = tested on: ACHN renal
LOX IMVI melanoma = tested on: LOX IMVI melanoma
NCI-H226 lung = tested on: NCI-H226 lung
U251 CNS = tested on: U251 CNS
OVCAR-8 ovarian = tested on: OVCAR-8 ovarian
786-0 renal = tested on: 786-0 renal
SK-MEL-2 melanoma = tested on: SK-MEL-2 melanoma
SR leukemia = tested on: SR leukemia
NCI/ADR-RES ovarian = tested on: NCI/ADR-RES ovarian
PC-3 prostate = tested on: PC-3 prostate
SK-OV-3 ovarian = tested on: SK-OV-3 ovarian
OVCAR-4 ovarian = tested on: OVCAR-4 ovarian
HCC-2998 colon = tested on: HCC-2998 colon
CCRF-CEM leukemia = tested on: CCRF-CEM leukemia
HL-60(TB) leukemia = tested on: HL-60(TB) leukemia
MOLT-4 leukemia = tested on: MOLT-4 leukemia

Measured: TGI

c1cc2c(cc1C(N1CCNCC1)N1CCNCC1)OCO2
5.6 µM: K-562 leukemia
not listed: HCC-2998 colon | CCRF-CEM leukemia | HL-60(TB) leukemia | MOLT-4 leukemia
> 100 µM: all other assays above

O=C(O)C(F)(F)C(F)(F)C(F)(F)C(F)(F)C(=O)O
not listed: SF-539 CNS | MOLT-4 leukemia
> 100 µM: all other assays above

CCN(CC)c1ccc(/C=c2\nc(-c3ccccc3)n3c2nc2ccccc23)cc1
72.2 µM: BT-549 breast
32.2 µM: OVCAR-4 ovarian
5.98 µM: HT29 colon
26.4 µM: LOX IMVI melanoma
26.6 µM: NCI/ADR-RES ovarian
11.4 µM: SF-539 CNS
35.4 µM: EKVX NSCLC
37.9 µM: M14 melanoma
48.8 µM: MDA-MB-435
23.3 µM: HCC-2998 colon
30.9 µM: UACC-62 melanoma
68.6 µM: HOP-62 NSCLC
5.84 µM: T-47D breast
21.9 µM: SK-MEL-5 melanoma
20.1 µM: COLO 205 colon
61 µM: RXF 393 renal
99.3 µM: UACC-257 melanoma
45.8 µM: SF-295 CNS
8.7 µM: PC-3 prostate
9.72 µM: CAKI-1 renal
88.3 µM: ACHN renal
6.3 µM: RPMI-8226 leukemia
60.5 µM: NCI-H226 lung
18.8 µM: HCT-116 colon
11.7 µM: CCRF-CEM leukemia
24.6 µM: MDA-N
52.3 µM: MALME-3M melanoma
not listed: NCI-H522 lung | SK-MEL-28 melanoma | SNB-75 CNS | HL-60(TB) leukemia
> 100 µM: all other assays above

O=C1C(Cl)=C(Oc2ccc([N+](=O)[O-])cc2)C(=O)c2c(O)ccc(O)c21
40.1 µM: MALME-3M melanoma
> 80.9 µM: SW-620 colon
52.5 µM: RXF 393 renal
16.1 µM: SR leukemia
> 60.1 µM: RPMI-8226 leukemia
66 µM: MDA-MB-231 breast
> 69.2 µM: M14 melanoma
> 77.7 µM: T-47D breast
19.2 µM: HL-60(TB) leukemia
12.9 µM: CCRF-CEM leukemia
> 94 µM: TK-10 renal
40.2 µM: NCI-H522 lung
> 83.1 µM: HT29 colon
> 76.2 µM: SK-MEL-28 melanoma
56.6 µM: HOP-92 NSCLC
40.3 µM: K-562 leukemia
> 67.8 µM: MDA-MB-435
42.3 µM: COLO 205 colon
> 31.6 µM: MDA-N
25.2 µM: MOLT-4 leukemia
> 67.6 µM: HCT-15 colon
not listed: CAKI-1 renal | LOX IMVI melanoma | SK-MEL-2 melanoma
> 100 µM: all other assays above
